From paper PMC6386767, “Characterization of recombinant fructose-1,6-bisphosphatase gene mutations: evidence of inhibition/activation of FBPase protein by gene mutation” (Bioscience Reports, 2019)
Residue numbers refer to the chain shown, from its start.

Columns and labels:
[1] = target: T1, pig kidney FBPase K112A (Sus scrofa, UniProt P00636, K113A); test: Malachite Green kinetic assay, K112A mutant; format: biochemical; settings: enzyme K112A vs WT
T1 construct: His6 (C); made in house; host or cells: Escherichia coli BL21 (DE3)
T1 sequence (P00636 1-338 K113A): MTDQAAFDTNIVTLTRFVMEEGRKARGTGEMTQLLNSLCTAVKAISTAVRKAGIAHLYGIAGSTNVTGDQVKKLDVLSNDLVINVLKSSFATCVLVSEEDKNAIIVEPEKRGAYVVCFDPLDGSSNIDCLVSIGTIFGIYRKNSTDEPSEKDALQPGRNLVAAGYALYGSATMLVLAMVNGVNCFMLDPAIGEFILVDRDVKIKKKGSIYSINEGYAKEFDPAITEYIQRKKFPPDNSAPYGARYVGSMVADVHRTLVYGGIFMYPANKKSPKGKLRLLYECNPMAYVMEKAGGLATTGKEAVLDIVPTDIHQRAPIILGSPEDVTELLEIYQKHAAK
Procedure: (§1) For the kinetic assay, a standard curve was obtained from an ammonium molybdate Malachite Green inorganic phosphate assay (OD660 nm). The purified FBPase protein was dialyzed ×3 in 50 mM Tris buffer at pH 7.5 at 4°C. For enzyme concentration, absorbency values were recorded for all five mutant proteins using spectrophotometer readings at OD280 nm. To quantitate enzyme concentration, the enzymes were calculated based on the quantity of micrograms per microliter (µg/µl) present. Final concentration of WT and mutant enzymes was between 2.5 and 5.0 µg/µl. Using a colorimetric assay as described below, specific activity (SA) was determined. At last, all kinetic and binding assays described below were performed in 50 mM Tris pH 7.5.
(§2) Kinetic assays were performed for WT and mutant enzymes to identify functional differences between the WT enzyme and the mutants. […] Readings recorded at OD660 nm for each enzyme were applied to the standard curve equation. Micromoles of inorganic phosphate were calculated to determine the SA of mutant enzymes.
(§3) For each clone, the kinetic assay was performed in duplicates of triplicates. Malachite Geen was used to detect inorganic phosphate. Two separate clones were processed independently of the same mutant. All kinetic data were fit to symmetric sigmoidal curve using Origin software based on methods previously described [[27–29]]. More specifically, for kinetic parameters established via curve fitting (shown in Tables 1–3; and in Figure 5A,B), the equation y = d + (a − d)/1 + (x/c)^b was used where ‘x’ is represented by apparent Michelis constant (Km) when y = Vmax. […] P-values were significant at <0.001 and represent a comparison with the WT enzyme.

[2] = target: T2, pig kidney FBPase Y113A (Sus scrofa, UniProt P00636, Y114A); test: Malachite Green kinetic assay, Y113A mutant; format: biochemical; settings: enzyme Y113A vs WT
T2 construct: His6 (C); made in house; host or cells: Escherichia coli BL21 (DE3)
T2 sequence (P00636 1-338 Y114A): T1 sequence (P00636 1-338 K113A) with A113K, Y114A
Procedure: as §1, §2, §3

SMILES: O=C(COP(=O)(O)O)[C@@H](O)[C@H](O)[C@H](O)COP(=O)(O)O [FBP, fructose-1,6-bisphosphate]
- greater binding to the FBP substrate compared with WT [1]: 2 ×
- greater binding to the FBP substrate compared with WT [2]: 2 ×
